Target: T1, recombinant human secreted phospholipase A2 (Homo sapiens, UniProt P14555)
T1 sequence (P14555 21-144): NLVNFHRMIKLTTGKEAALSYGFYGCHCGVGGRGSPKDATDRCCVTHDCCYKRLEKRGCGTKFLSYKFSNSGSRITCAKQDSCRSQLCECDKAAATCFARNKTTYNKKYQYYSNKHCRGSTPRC
Assay: chromogenic assay of recombinant human secreted phospholipase A2
Type: biochemical
Conditions: diheptanoyl thio-PC substrate, pH 7.5, 40° C. for 30 minutes, absorbance at 405 nanometers, triplicate
Text: The following chromogenic assay procedure was used to identify and evaluate inhibitors of recombinant human secreted phospholipase A2. The assay described herein has been adapted for high volume screening using 96 well microtiter plates. A general description of this assay method is found in the article, “Analysis of Human Synovial Fluid Phospholipase A2 on Short Chain Phosphatidylcholine-Mixed Micelles: Development of a Spectrophotometric Assay Suitable for a Microtiterplate Reader”, by Laure J. Reynolds, Lori L. Hughes, and Edward A Dennis, Analytical Biochemistry, 204, pp. 190–197, 1992 (the disclosure of which is incorporated herein by reference): […]
A measured volume of racemic dipheptanoyl thio PC supplied in chloroform at a concentration of 100 mg/ml is taken to dryness and redissolved in 10 millimolar TRITON X-100™ nonionic detergent aqueous solution. […]
• 1. […] Read absorbance of wells at 405 nanometers with an automatic plate reader.
Tests were done in triplicate. […] Compounds initially found to be active were re-assayed to confirm their activity and, if sufficiently active, IC50 values were determined. […] In all cases, % inhibition measured at 405 nanometers generated by enzyme reactions containing inhibitors relative to the uninhibited control reactions was determined. […]

SMILES: NC(=O)C1CCc2c1c1c(OCC(=O)O)cccc1n2Cc1ccccc1 (stereo not shown) [Example 1, (4-Benzyl-1-carbamoyl-1,2,3,4-tetrahydro-cyclopenta[b]indol-8-yloxy)-acetic acid]
- IC50: 0.046 µM

From patent publication US7160909B2, “Cyclopenta[b]indole derivatives as sPLA2 inhibitors” (Eli Lilly and Company, priority 2001, dated 2007)
